Results on 3 compounds are retold here after patent US9872833B2, “Liposome composite body” (National University Corporation Tottori University, priority 2011, dated 2018).

The nature of data set [1]: Measurement of singlet oxygen. The following applies: excitation wavelength 690 nm, 20 mW; singlet oxygen detected at 1,270 nm. It counts as physicochemical. The method, then: The measurement conditions are as follows.
Excitation was carried out with a dye laser using an excitation wavelength of 690 nm, an average output of 20 mW, a repetition frequency of 30 Hz, a pulse width of about […], and DCM.
For detection, light was dispersed by a spectroscope (focal distance: 250 mm, grating: 600 L/mm) using a gated near-infrared image intensifier (NIR-PII) cooled at −80° C., followed by measurement for 200 microseconds from 30 microseconds after excitation.
In FIG. 10, the red line indicates the generation of singlet oxygen (1,270 nm) derived from ICG-8, and the blue line indicates singlet oxygen scavenging by β-carotene (concentration: 4 μM).
(§1) The measurement conditions were as follows.
In FIG. 12, the red line indicates the generation of singlet oxygen (1,270 nm) derived from ICG-11, and the blue line indicates singlet oxygen scavenging by β-carotene (concentration: 6 μM).

A short description of data set [2]: Fluorescence spectrum of liposome dispersions. The following applies: liposome dispersion; excitation wavelength 736 nm. It counts as physicochemical. The method, then: (1) Fluorescence Spectrum
Dispersion of Liposome Including ICG (ICG
A chloroform/methanol (9:1, v/v) solution containing 10.0 mM of egg yolk-derived phosphatidylcholine and 3.2×10^−2 mM of ICG (Diagnogreen injection, Daiichi Sankyo) was prepared; 3 mL thereof was subjected to the distillation off of the solvent under reduced pressure; and 3 mL of a physiological saline was added to the formed thin membrane, which was then treated using a filter having a pore diameter of 0.22 μm to provide liposomes.
(§2) Dispersion of Liposome Having ICG-8 in Lipid Bilayer Membrane (LP-ICG-8)
A chloroform/methanol (9:1, v/v) solution containing 10.0 mM of egg yolk-derived phosphatidylcholine and 3.2×10^−2 mM of ICG-8 was prepared; 3 mL thereof was subjected to the distillation off of the solvent under reduced pressure; and 3 mL of a physiological saline was added to the formed thin membrane, which was then treated using a filter having a pore diameter of 0.22 μm to provide liposomes.
When the above liposome dispersions were measured for fluorescence spectra (Jasco FP-6600), fluorescence spectra as shown in FIG. 2 were obtained at an excitation wavelength of 736 nm. The maximum fluorescence wavelength for ICG was 852 nm, and the maximum fluorescence wavelength for ICG-8 was 854 nm.

Data set [3] is described as follows: Fluorescence spectral characteristic of ICG-11 in polar and non-polar solvent. It counts as physicochemical. The following applies: 1 μM; for fluorescence emission: in chloroform as non-polar solvent. On the procedure:
(1) Fluorescence Spectral Characteristic of ICG-11
The physical properties of ICG-11 were examined in aqueous solutions different in polarity in comparison with ICG.
(a) Comparison in Methanol as Polar Solvent
(b) Comparison in Chloroform as Non-Polar Solvent
In FIG. 11, the black and red lines indicate the results for ICG-11 (concentration: 1 μM) and ICG (concentration: 1 μM), respectively.

Data set [4] in a line: Loading amount in liposome (gel filtration). It counts as physicochemical. The following applies: liposomes formed at ICG:DOPC of 1:40 or 1:20. On the procedure: The amount of ICG-11 loadable in the liposome was examined by changing the mixing ratio between ICG-11 and dioleoylphosphatidylcholine (DOPC) as the main component of the lipid bilayer membrane. For comparison, the amount of loadable ICG was examined.
In chloroform/methanol (9:1, v/v) solution were dissolved DOPC (10 mM), cholesterol (5 mM), polyethylene glycol-modified phosphatidylethanolamine (PEG-PE, 0.5 mM), and ICG-11 (0 to 5 mM) or ICG (0 to 0.5 mM); a portion of the resultant solution was dried under reduced pressure; and a physiological saline was added to the formed thin membrane, which was then treated using a filter having a pore diameter of 100 nm to provide a liposome dispersion.
The amount of incorporation of ICG-11 into the lipid bilayer membrane when it formed a liposome was measured using the following conditions.
Liposomes into which ICG-11 or ICG was incorporated and ICG-11 or ICG released into a liposome dispersion without being incorporated into the lipid bilayer membrane were separated and determined using a gel filtration column (PD-10 from GE) (FIG. 14).

For data set [5], the system named is cancer (glioma) under the skin using the brain tumor cells 9 L. As to the kind of experiment: Near-infrared camera image after intravenous administration (tumor accumulation). Conditions: 500 μL through the cervical vein; 5 minutes after administration; 9 L tumor-bearing rats. It counts as in vivo, rat. On the procedure: (2) Near-Infrared Camera Image after Intravenous Administration
ICG Aqueous Solution (ICG)
ICG was dissolved to 3.2 mM in pure water and diluted by 100-fold with a physiological saline.
as §2
A chloroform/methanol (9:1, v/v) solution containing egg yolk-derived phosphatidylcholine (10.0 mM), cholesterol (1.0 mM), polyethylene glycol-modified phosphatidylethanolamine (PEG-PE) (5.0×10^−1 mM), and ICG-8 (3.2×10^−2 mM) was prepared; 5 mL thereof was evaporated under reduced pressure; 5 mL of a physiological saline was added to the formed thin membrane, which was then treated using a filter having a pore diameter of 0.22 μm; and the resultant was further treated using a filter having a pore diameter of 0.05 μm to provide liposomes.
F344/Jc1 34-36 weeks 9 L rats were used for the test. […] After cutting the hair over the tumor location, 500 μL of the ICG aqueous solution or LP-ICG-8 was administered through the cervical vein. Fluorescent observation (Hyper Eye Medical System from Mizuho Corporation, excitation wavelength: 760 to 780 nm, fluorescence wavelength: >780 nm) was carried out 5 minutes after administration (FIG. 3). The distance between each rat and the camera head was 50 cm.

A short description of data set [6]: Heat generating capacity of ICG-11. It counts as physicochemical. The following applies: excitation 808 nm, 0.5 W/m^2; ICG-11 0 to 4 μM. On the procedure:
(3) Heat Generating Capacity of ICG-11
The heat generating capacity of […] was measured using the following conditions.
as §1
Excitation was carried out at an excitation wavelength of 808 nm and an output of 0.5 W/m^2. The temperature was measured at 1-second intervals.
In FIG. 13, the black, red, blue, and green lines indicate the results when the concentration of ICG-11 was 0 μM, 1 μM, 2 μM, and 4 μM, respectively.

As for “4-(2-((1E,3E,5E,7E)-7-(1,1-dimethyl-3-octadecyl-1H-benzo[e]indol-2(3H)-ylidene)hepta-1,3,5-trienyl)-1,1-dimethyl-1H-benzo[e]indolium-3-yl)butane-1-sulfonic acid [ICG-8]”, in data set [1], the singlet oxygen-producing capacity entry is reported as “had a singlet oxygen-producing capacity”. For the same compound, the maximum fluorescence wavelength in data set [2] is recorded as 854 nm.
For `CC1(C)C(/C=C/C=C/C=C/C=C2\N(CCCCS(=O)(=O)O)c3ccc4ccccc4c3C2(C)C)=[N+](CCCCS(=O)(=O)[O-])c2ccc3ccccc3c21` [ICG, indocyanine green, reference compound], the fluorescence emission result in data set [3] is “not emitting fluorescence”. The same compound displayed a maximum fluorescence wavelength in data set [2] of 852 nm. Besides, the “dye not incorporated into the lipid bilayer membrane” value in data set [4] is given as “ICG not incorporated into the lipid bilayer membrane increased in the dispersion”. Also, in data set [5], the “accumulation in the tumor tissue (fluorescent observation)” value is “did not result in the accumulation of ICG in the tumor tissue”.
On to `CCCCCCCC/C=C\CCCCCCCC(=O)OC[C@H](COP(=O)(O)OCCNC(=O)CCN1/C(=C/C=C/C=C/C=C/C2=[N+](CCCCS(=O)(=O)O)c3ccc4ccccc4c3C2(C)C)C(C)(C)c2c1ccc1ccccc21)OC(=O)CCCCCCC/C=C\CCCCCCCC` [ICG-11, 4-(2-((1E,3E,5E,7E)-7-(3-(2-(1,2-dioleoyl-sn-glycero-3-phosphoethanolaminocarbonyl)ethyl)-1,1-dimethyl-1H-benzo[e]indol-2(3H)-ylidene)hepta-1,3,5-trienyl)-1,1-dimethyl-1H-benzo[e]indolium-3-yl)butane-1-sulfonic acid], for which, in data set [6], the heat generating capacity entry is “had a heat-generating capacity (increasing the tissue temperature from 37 °C to 43° C.)”. Besides, the singlet oxygen-producing capacity result in data set [1] was “had a singlet oxygen-producing capacity”. In addition, the fluorescence emission entry in data set [3] is on record as “sufficiently strong fluorescence”. Also, the “fluorescence compared to ICG” value in data set [3] (in methanol as polar solvent) was determined as 1.5 fold.
